Data taken from patent US20250275966A1, “GABAA RECEPTOR MODULATOR SALTS, PARTICLES, AND USES THEREOF” (Engrail Therapeutics, Inc., priority 2022, published 2025).
Where a name gives a salt, the structure may show the parent alone.

What was measured:
[1] = type: physicochemical
Procedure: A hemi-fumarate Form A (acetonitrile solvate) and hemi-fumarate Form B (non-solvated) of 3-(2,5-difluorophenyl)-7-[1,1-di(methyl-d3)ethyl-2,2,2-d3]-6-[(1-methyl-1H-1,2,4-triazol-5-yl)methoxy]-1,2,4-triazolo[4,3-b]pyridazine were prepared. A seed crystal for Form B was prepared by first combining 20.3 mg ([…]) 3-(2,5-difluorophenyl)-7-[1,1-di(methyl-d3)ethyl-2,2,2-d3]-6-[(1-methyl-1H-1,2,4-triazol-5-yl)methoxy]-1,2,4-triazolo[4,3-b]pyridazine with 1000 μL acetone. Fumaric acid/EtOH was added ([…], 1.0 eq) and the sample was continuously stirred while cycling the temperature between 40° C. and 5° C. (heating and cooling at 2° C./min. with 1 hour hold at 40° C. and 5° C.) for 48 hours. The samples were isolated at 5° C. and the suspension was equilibrated with stirring at 20° C. for 2 hours. Birefringent solids were harvested by filtration at room temperature and air-dried overnight. 3-(2,5-difluorophenyl)-7-[1,1-di(methyl-d3)ethyl-2,2,2-d3]-6-[(1-methyl-1H-1,2,4-triazol-5-yl)methoxy]-1,2,4-triazolo[4,3-b]pyridazine (5.51 mmol) was combined with acetone ([…], 16 vol). To the resulting solution (with minimal residual solids), fumaric acid (575 mg, 1.0 eq) was added, followed by seeding, e.g., with Form B (˜10 mg). […]

[2] = Intrinsic dissolution rate and solubility in 0.1 N HCl with 1% Tween 80 (USP <1087>); type: physicochemical; settings: 0.1 N HCl with 1% Tween 80, 37° C.; for Intrinsic Dissolution Rate IDR: paddle 100 rpm, die surface 0.5 cm^2
Procedure: The intrinsic dissolution rate was determined by forming compacted pellets of approximately 75 mg of API using a compression force of 1200 pounds of force, and each pellet (die surface area: 0.5 cm^2) was immersed into a flat bottom vessel containing 500 mL of medium (aqueous 0.1 N HCl with 1% Tween 80 (polyoxyethylene (20) sorbitan monooleate)), using a Distek 2100A dissolution bath, and Distek Circulator/heater (set to 37° C.), with a paddle speed of 100 rpm. An aliquot of the sample (1 mL) was pulled from dissolution media at 15, 30, 45, 60, 75, 90, 105, and 120 minutes, filtered, and analyzed by HPLC. The slope of the dissolution profile corresponded to an intrinsic dissolution rate of hemi-fumarate salt Form B of 6.2 μg/(min·cm^2) as compared to 8.9 μg/(min·cm^2) for Compound 1 (free base). Determination of intrinsic dissolution rate (IDR) was performed for Compound 1 and seven different salts of Compound 1 according to USP <1087> in 0.1 N hydrochloric acid with 1% Tween 80 (Polyoxyethylene […] sorbitan monooleate). Compacted pellets containing approximately 75 mg API were prepared using a compression force of 1200 pounds of force, and each pellet (die surface area: 0.5 cm^2) was immersed into a flat bottom vessel containing 500 mL of medium, using a Distek 2100A dissolution bath, and Distek Circulator/heater (set to 37° C.), with a paddle speed of 100 rpm. An aliquot of the sample (1 mL) was pulled from dissolution media at 15, 30, 45, 60, 75, 90, 105, and 120 minutes, filtered, and analyzed by HPLC. HPLC for IDR and solid-state stability analyses were conducted with an Agilent 1260 Infinity system equipped with a G1311B Quad pump, […] Autosampler, G1330B auto-sampler thermostat, G1316A Thermostatted Column Compartment with a column switch valve, and […] diode array detector.

[3] = Oral non-human primate crossover PK study (Example 7); type: in vivo, cynomolgus monkeys; settings: both micronized and non-micronized form; cynomolgus monkeys, single PO capsule
From the text: An objective of this study is to determine the Pharmacokinetic (PK) profile of the Test Article following a single oral administration to four male non-human primate cynomolgus monkeys with one (1) week wash out periods.
Four male animals are used for this study, and the four study animals are used for each of three dosing phases with one-week washout periods. Food is withheld overnight prior to dose administration, and food is returned four hours post-dose administration. Water is provided ad libitum by automatic watering device. Two of the four animals are previously treated with Compound 1, and the other two are Compound 1 naive. Test Article (M-3, N-3, or K-13) are provided as capsulized powders; stored at room temperature protected from light in, for example, a polyolefin bottle.

[4] = Pharmacokinetic analysis of Compound 1 and its salts after oral capsule administration (Example 4); type: in vivo, cynomolgus monkeys; settings: single PO capsule, 30 mg/kg
Procedure: A pharmacokinetic analysis was performed comparing administration of Compound 1 with certain salts of Compound 1 after oral (PO) administration in 3 male cynomolgus monkeys. The subjects received a single PO oral gavage of active pharmaceutical ingredient (API) (e.g., Compound 1 fumarate, Compound 1 sulfate, Compound 1 hydrochloride, Compound 1 phosphate, Compound 1 tosylate, Compound 1 malonate, Compound 1 maleate, or Compound 1 free base) in a capsule at a dose of 30 mg/kg. Following dose administration, the animals were flushed with approximately 10 milliliters of tap water to ensure all API was administered. Animals were observed twice daily and at sample collection time-points for any abnormal clinical and behavioral signs. Body weights were taken prior to dosing and weekly thereafter until study termination. Blood samples (0.5 mL) were collected pre-dose, 15 minutes, 30 minutes, and 1, 2, 4, 6, 8, 10, 12, and 24 hours post-dose. Each blood sample was collected from the monkey's femoral, saphenous or other available vein via direct venipuncture, placed into a polypropylene tube containing K2EDTA as the anticoagulant, and gently inverted several times to mix. The blood samples were kept on wet ice until centrifugation. Blood was centrifuged within 10 minutes of collection. The samples were centrifuged at a temperature of 4° C., at 3,000 g, for 5 minutes. The resulting plasma (˜0.25 mL) was divided into two equal aliquots (125 μL each) into polypropylene tubes, designated as Set A and Set B, after centrifugation. Plasma samples designated for certain metabolites (Set A) were treated with 12.5 μL of 2 M ascorbic acid (plasma: ascorbic acid=[…], v:v) prepared beforehand by combining 0.352 g of ascorbic acid into 1 mL of sterile water in a glass vial and mixing thoroughly. […] Once plasma was prepared, the samples were snap frozen on dry ice. All plasma samples were stored frozen below −70° C. until analyzed.

[5] = Solid-state stability by HPLC and XRPD; type: physicochemical; settings: 40° C./75% RH (opened) and 50° C./ambient RH (closed), after 4 weeks
Procedure: Solid-state stability of the fumarate salt of Compound 1 was assessed after storage at the following conditions for 2 and 4 weeks by HPLC and XRPD: 40° C./75% RH (opened); and 50° C./ambient RH (closed). […] Solid-state stability of Compound 1 and seven salts of Compound 1, as in Example 8, was assessed after storage at the following conditions for 2 and 4 weeks by HPLC and PXRD: 40° C./75% RH (opened); and 50° C./ambient RH (closed). HPLC for IDR and solid-state stability analyses were conducted with an Agilent 1260 Infinity system equipped with a G1311B Quad pump, […] Autosampler, G1330B auto-sampler thermostat, G1316A Thermostatted Column Compartment with a column switch valve, and […] diode array detector.

[6] = Gravimetric vapor sorption (GVS); type: physicochemical
Procedure: Selected physicochemical data of Form B were collected. Hemi-fumarate salt Form B was determined to be crystalline by polarized-light microscopy (PLM) and XRPD. […] (ΔH=1.7 J/g), followed immediately by a sharp endotherm at 199.6° C. […] (see FIG. 7). Proton NMR confirmed a hemi-salt with 0.5:1 CI:API ratio. […] No change in the XRPD pattern was observed post GVS.
GVS experiments were conducted on a Surface Measurement Systems DVS-Advantage. The experiments were performed at 25° C. The instrument was operated in step mode and the relative humidity was increased in 10% RH increments from 40% RH to 75% RH, then decreased from 75% RH to 5% RH, then increased a second time from 5% RH to 95% RH, then decreased from 95% RH to 5% RH. The mass equilibrium criterion was set at 0.003% change in mass over time (dm/dt). A minimum step time of 20 minutes and a maximum step time of 240 minutes were specified.

[7] = 3 male cynomolgus monkeys, plasma Compound 1

SMILES: [2H]C([2H])([2H])C(c1cc2nnc(-c3cc(F)ccc3F)n2nc1OCc1ncnn1C)(C([2H])([2H])[2H])C([2H])([2H])[2H] [Form A, 3-(2,5-difluorophenyl)-7-[1,1-di(methyl-d3)ethyl-2,2,2-d3]-6-[(1-methyl-1H-1,2,4-triazol-5-yl)methoxy]-1,2,4-triazolo[4,3-b]pyridazine]
- solid form stability at ambient conditions [1]: converted to Form B

SMILES: [2H]C([2H])([2H])C(c1cc2nnc(-c3cc(F)ccc3F)n2nc1OCc1ncnn1C)(C([2H])([2H])[2H])C([2H])([2H])[2H] [Fumarate Salt, 3-(2,5-difluorophenyl)-7-[1,1-di(methyl-d3)ethyl-2,2,2-d3]-6-[(1-methyl-1H-1,2,4-triazol-5-yl)methoxy]-1,2,4-triazolo[4,3-b]pyridazine]
- Solubility, time point 15 min ([2]; 500 mL, pellet about 75 mg, 15 min): 0.342 µg/mL
- Solubility, time point 30 min ([2]; 500 mL, pellet about 75 mg, 30 min): 0.404 µg/mL
- Solubility, time point 45 min ([2]; 500 mL, pellet about 75 mg, 45 min): 0.46 µg/mL
- Solubility, time point 60 min ([2]; 500 mL, pellet about 75 mg, 60 min): 0.576 µg/mL
- Solubility, time point 75 min ([2]; 500 mL, pellet about 75 mg, 75 min): 0.684 µg/mL
- Solubility, time point 90 min ([2]; 500 mL, pellet about 75 mg, 90 min): 0.79 µg/mL
- Solubility, time point 105 min ([2]; 500 mL, pellet about 75 mg, 105 min): 0.87 µg/mL
- Solubility, time point 120 min ([2]; 500 mL, pellet about 75 mg, 120 min): 0.993 µg/mL
- Intrinsic Dissolution Rate IDR [2]: 6.2 μg/(min · cm^2)
- Intrinsic Dissolution Rate IDR ([2]; listed as hemi-fumarate salt Form B): 6.2 μg/(min · cm^2)
- Solubility, Cumulative ([2]; sum of the 15-120 min time points): 5.119 µg/mL
- exposure to Compound 1 as compared to subjects dosed with the free base [3]: superior exposure
- Cmax [4, 7]: 3080 ng/mL
- Tmax [4, 7]: 4.7 h
- Cmax ([4]; 3 male cynomolgus monkeys, plasma Compound 1, listed as fumarate salt of Compound 1, 30 mg/kg): about 3080 ng/mL
- AUClast higher than that of Compound 1 ([4]; male cynomolgus monkeys): over 50%
- Cmax higher than that of Compound 1 (free base) ([4]; male cynomolgus monkeys): over 98%
- AUC(0-t) ([4]; male, cynomolgus monkey, plasma, po, male cynomolgus monkeys): 38900 ng·h/mL
- Solid-state stability by HPLC or XRPD [5]: No significant changes
- XRPD pattern post GVS ([6]; after GVS): No change
- moisture uptake (GVS) ([6]; between 5-95% RH, 25° C.): < 0.1 % wt
